According to patent US7767854B2, “N-substituted phenylacetamide derivative and pharmaceutical composition containing the same” (Dainippon Sumitomo Pharma Co., Ltd., priority 2005, dated 2010):
Read-outs that look alike come from different tables or passages of the source.

System: male Std: Wistar rats
Assay: Pain test by plantar thermal stimuli (plantar test)
Type: in vivo
Details: Rattus norvegicus, 50 μl of 0.03% (W/V) solution i.pl. into right hind-paw, 4 hours after administration, cut-off 25 seconds, read-out: % MPE (percent maximum possible effect, withdrawal latency)
Procedure: Experiment 1: Pain Test by Plantar Thermal Stimuli (Plantar Test)
In the present experiment, the analgesic effect of the compounds of the invention was evaluated by the measurements of withdrawal latency to noxious thermal stimuli, according to the methods of Hargreaves, et al., [Pain, 32, 77-88 (1988)] and Field, et al., [J. Pharmacol. Exp. Ther., 282, 1242-1246 (1997)].
In detail, the experiment was carried out using male Std: Wistar rats (4 rats/group; body weight, 170-220 g) and a plantar test device (Model 7370, Ugo Basile) with infrared beam as a heat source. The rat was put into an experimental cage that is an acrylic box whose bottom is made of glass and was habituated therein. Then, the infrared beam was radiated to the plantar surface of right hind-paw thereof through the floor glass, and the withdrawal latency was measured every 5 minutes, 3 times. The intension of the infrared beam was adjusted so that the pre-drug administration latency was about 10 seconds. The cut-off time was set at 25 seconds in order to prevent a paw burn. The average of the latencies was calculated, and then it was defined as the value of the pre-drug administration latency of the test compound.
Next day, 50 μl of each solution of the test compounds [the compounds of the invention, the compounds of the comparative Examples and capsaicin (Sigma, U.S.A.)] or 50 μl of vehicle solvent (reference) was given to a right hind-paw of the rat by intraplantar injection (i. pl.) using a micro-syringe. The test compound was dissolved in a saline solution containing 10% Tween 80 (Sigma, U.S.A) and 10% ethanol to give a 0.03% (W/V) solution. The saline solution containing 10% Tween 80 and 10% ethanol was used as reference. Four hours after i.pl. administration of each the test compound or the reference to the rats, the experiment mentioned above was carried out, and then the post-drug administration latency was measured. The analgesic effects thereof were calculated with the following formula, which was known as a percent maximum possible effect (% MPE). % MPE=[(the value of post-drug latency−the value of pre-drug latency)/(25*−the value of pre-drug latency)]×100 *: cut-off time

SMILES | change in vivo at 300 µg/mL (4 h) | change in vivo at 300 µg/mL
COc1cc(CC(=O)NC2CCC(C)CC2)ccc1O (centres unmarked) [Comparative Example 1, 2-(4-hydroxy-3-methoxyphenyl)-N-(4-methyl-cyclohexyl)acetamide, reference compound] | 23.3% | –
COc1cc(CC(=O)NC2CCCCC2)ccc1O [Comparative Example 2, N-cyclohexyl-2-(4-hydroxy-3-methoxyphenyl)-acetamide, reference compound] | 30.6% | –
CCCCCC1CCC(NC(=O)Cc2ccc(O)c(OC)c2)CC1 (centres unmarked) [Example 3, 2-(4-hydroxy-3-methoxyphenyl)-N-(4-pentyl-cyclohexyl)acetamide] | 89.9% | –
CCC(C)(C)C1CCC(NC(=O)Cc2ccc(O)c(OC)c2)CC1 (centres unmarked) [Example 4] | 56.6% | –
COc1cc(CC(=O)NC2CCC(C3CCCCC3)CC2)ccc1O (centres unmarked) [Example 5] | 59.2% | –
COc1cc(CC(=O)NC2CCC(c3ccccc3)CC2)ccc1O (centres unmarked) [Example 6] | 82.6% | –
CCCC[C@H]1CC[C@@H](NC(=O)Cc2ccc(O)c(OC)c2)CC1 [Example 7] | 78.6% | –
CCCC1(CCC)CCC(NC(=O)Cc2ccc(O)c(OC)c2)CC1 [Example 9, N-(4,4-dipropylcyclohexyl)-2-(4-hydroxy-3-methoxyphenyl)acetamide] | 64.7% | –
COc1cc(CC(=O)N[C@H]2CC[C@H](/C=C\C(C)C)CC2)ccc1O [Example 14, 2-(4-hydroxy-3-methoxyphenyl)-N-{trans-4-[(Z)-3-methyl-1-butenyl]cyclohexyl}acetamide] | 100% | –
COc1cc(CC(=O)N[C@H]2CC[C@H](/C=C\CC(C)C)CC2)ccc1O [Example 15] | 94.4% | –
CCC/C=C\[C@H]1CC[C@H](NC(=O)Cc2ccc(O)c(OC)c2)CC1 [Example 17] | 74.9% | –
COc1cc(CC(=O)N[C@H]2CC[C@H](/C=C\C3CC3)CC2)ccc1O [Example 18] | 80.5% | –
C=C/C=C/[C@H]1CC[C@H](NC(=O)Cc2ccc(O)c(OC)c2)CC1 [Example 19] | 35.9% | –
CCOC(=O)/C=C/[C@H]1CC[C@H](NC(=O)Cc2ccc(O)c(OC)c2)CC1 [Example 20] | 53.8% | –
COc1cc(CC(=O)N[C@H]2CC[C@H](/C=C/C(C)=O)CC2)ccc1O [Example 21] | 50.3% | –
COc1cc(CC(=O)N[C@H]2CC[C@H](/C=C\CC(F)(F)F)CC2)ccc1O [Example 23] | 77.9% | –
COc1cc(CC(=O)N[C@H]2CC[C@H](C=C(C)C)CC2)ccc1O [Example 24] | 72.4% | –
COc1cc(CC(=O)N[C@H]2CC[C@H](C=C3CCCC3)CC2)ccc1O [Example 25] | 98.3% | –
CCCC[C@H]1CC[C@H](NC(=O)Cc2ccc(O)c(OC)c2)CC1 [Example 28] | 87.1% | –

SMILES | change in vivo at 300 µg/mL (4 h) | change in vivo at 300 µg/mL
CCOC(=O)CC[C@H]1CC[C@H](NC(=O)Cc2ccc(O)c(OC)c2)CC1 [Example 29] | 45.8% | –
CCCCC[C@H]1CC[C@H](NC(=O)Cc2ccc(O)c(OC)c2)CC1 [Example 30] | 71.3% | –
CCC[C@H]1CC[C@H](NC(=O)Cc2ccc(O)c(OC)c2)CC1 [Example 31] | 54.3% | –
COc1cc(CC(=O)N[C@H]2CC[C@H](CCC3CC3)CC2)ccc1O [Example 32] | 85.5% | –
COc1cc(CC(=O)N[C@H]2CC[C@H](CC(C)C)CC2)ccc1O [Example 33] | 73.3% | –
COc1cc(CC(=O)N[C@H]2CC[C@H](CC3CCCC3)CC2)ccc1O [Example 34] | 97.8% | –
CCCCO[C@H]1CC[C@H](NC(=O)Cc2ccc(O)c(OC)c2)CC1 [Example 35, N-(trans-4-butoxycyclohexyl)-2-(4-hydroxy-3-methoxyphenyl)acetamide] | 42.8% | –
COc1cc(CC(=O)N[C@H]2CC[C@H](OCCC(C)C)CC2)ccc1O [Example 37] | 49.9% | –
COc1cc(CC(=O)N[C@H]2CC[C@H](OCCCC(F)(F)F)CC2)ccc1O [Example 38] | 57.6% | –
CCCCOC[C@H]1CC[C@H](NC(=O)Cc2ccc(O)c(OC)c2)CC1 [Example 39] | 39.6% | –
COc1cc(CC(=O)N[C@H]2CC[C@H](OC(=O)c3ccc(C)cc3)CC2)ccc1O [Example 40, 2-(4-hydroxy-3-methoxyphenyl)-N-[trans-4-(4-methylphenylcarbonyloxy)cyclohexyl]acetamide] | 48.3% | –
COc1cc(CC(=O)N[C@H]2CC[C@H](OC(=O)Cc3ccccc3)CC2)ccc1O [Example 41, N-[trans-4-(benzylcarbonyloxy)cyclohexyl]-2-(4-hydroxy-3-methoxyphenyl)acetamide] | – | 45.8%
COc1cc(CC(=O)N[C@H]2CC[C@@H](CC=C(C)C)CC2)ccc1O [Example 47, 2-(4-hydroxy-3-methoxyphenyl)-N-[cis-4-(3-methyl-2-butenyl)cyclohexyl]acetamide] | 69% | –
COc1cc(CC(=O)N[C@H]2CC[C@@H](CCC(C)C)CC2)ccc1O [Example 48, 2-(4-hydroxy-3-methoxyphenyl)-N-[cis-4-(3-methylbutyl)cyclohexyl]acetamide] | 79.6% | –
CC/C=C\[C@H]1CC[C@@H](NC(=O)Cc2ccc(O)c(OC)c2)CC1 [Example 49, N-{cis-4-[(Z)-1-butenyl]cyclohexyl}-2-(4-hydroxy-3-methoxyphenyl)acetamide] | 97% | –
C/C=C\[C@H]1CC[C@@H](NC(=O)Cc2ccc(O)c(OC)c2)CC1 [Example 50] | 48.2% | –
COc1cc(CC(=O)N[C@H]2CC[C@@H](/C=C\CC(C)C)CC2)ccc1O [Example 51] | 96.4% | –
CC/C=C/[C@H]1CC[C@H](NC(=O)Cc2ccc(O)c(OC)c2)CC1 [Example 52, N-{trans-4-[(E)-1-butenyl]cyclohexyl}-2-(4-hydroxy-3-methoxyphenyl)acetamide] | 91.5% | –
C/C=C/[C@H]1CC[C@H](NC(=O)Cc2ccc(O)c(OC)c2)CC1 [Example 53] | 47.1% | –

SMILES | change in vivo at 300 µg/mL (4 h) | change in vivo at 300 µg/mL
CCC/C=C/[C@H]1CC[C@H](NC(=O)Cc2ccc(O)c(OC)c2)CC1 [Example 54] | 82.5% | –
COc1cc(CC(=O)N[C@H]2CC[C@H](/C=C/C3CC3)CC2)ccc1O [Example 55] | 55.4% | –
COc1cc(CC(=O)N[C@H]2CC[C@H](/C=C/CC(C)C)CC2)ccc1O [Example 56] | 70.2% | –
COc1cc(CC(=O)N[C@H]2CC[C@H](/C=C/C3CCC3)CC2)ccc1O [Example 57] | 54.2% | –
COc1cc(CC(=O)N[C@H]2CC[C@H](/C=C/CC3CC3)CC2)ccc1O [Example 58] | 48.6% | –
COc1cc(CC(=O)N[C@H]2CC[C@H](CCC3CCC3)CC2)ccc1O [Example 59, N-[trans-4-(2-cyclobutylethyl)cyclohexyl]-2-(4-hydroxy-3-methoxyphenyl)acetamide] | 74.7% | –
CCC/C=C/[C@H]1CC[C@@H](NC(=O)Cc2ccc(O)c(OC)c2)CC1 [Example 60, 2-(4-hydroxy-3-methoxyphenyl)-N-{cis-4-[(E)-1-pentenyl]cyclohexyl}acetamide] | 91.4% | –
C/C=C/[C@H]1CC[C@@H](NC(=O)Cc2ccc(O)c(OC)c2)CC1 [Example 61] | 49.4% | –
CC/C=C/[C@H]1CC[C@@H](NC(=O)Cc2ccc(O)c(OC)c2)CC1 [Example 62] | 86.3% | –
COc1cc(CC(=O)N[C@H]2CC[C@@H](/C=C/C(C)C)CC2)ccc1O [Example 63] | 96.4% | –
COc1cc(CC(=O)N[C@H]2CC[C@@H](/C=C/C3CC3)CC2)ccc1O [Example 64] | 71.1% | –
COc1cc(CC(=O)N[C@H]2CC[C@@H](/C=C/CC(C)C)CC2)ccc1O [Example 65] | 100% | –
COc1cc(CC(=O)N[C@H]2CC[C@@H](/C=C/C3CCC3)CC2)ccc1O [Example 66] | 88% | –
COc1cc(CC(=O)N[C@H]2CC[C@@H](/C=C/CC3CC3)CC2)ccc1O [Example 67] | 55.6% | –
CCC[C@H]1CC[C@@H](NC(=O)Cc2ccc(O)c(OC)c2)CC1 [Example 68, 2-(4-hydroxy-3-methoxyphenyl)-N-(cis-4-propylcyclohexyl)acetamide] | 81.6% | –
COc1cc(CC(=O)N[C@H]2CC[C@@H](CCCC(C)C)CC2)ccc1O [Example 69] | 79.9% | –
COc1cc(CC(=O)N[C@H]2CC[C@@H](CCC3CCC3)CC2)ccc1O [Example 70] | 92.6% | –
COc1cc(CC(=O)N[C@H]2CC[C@@H](CCCC3CC3)CC2)ccc1O [Example 71] | 87.9% | –
